From US4137227A, “1-Alkyl-1,4-dihydro-4-oxo-7-triazenyl-3-quinolinecarboxylic acids” (Sterling Drug Inc., priority 1977, dated 1979)
Converted amounts (≈) assume the structure as drawn. Like-named read-outs stand apart in the source and are kept apart here.

Assays:
[1] = cited from earlier work
L-1210 leukemia = conditions: 30 to 40 mg/kg dosage; cited from earlier work
P-388 tumor = conditions: cited from earlier work; for life-span of mice bearing i.p. implanted P-388 tumor: control animals 10 days
E. coli (Vogel) = test: Autotiter in vitro antibacterial test, E. coli (Vogel); format: cell-based; conditions: Escherichia coli, 18-20 hours at 37° C., read-out: minimal inhibitory concentration (MIC)
Description: (§1) The antibacterial activity of the compounds of formula I was determined using a modification of the Autotiter® method described by Goss et al. [Applied Microbiology 16 (9), 1414-1416 (1968)] in which a 1,000 mcg./ml. solution of the test compound is prepared. To the first cup of the Autotray® is added 0.1 ml. of the test solution. Activation of the Autotiter initiates a sequence of operations by which 0.05 ml. of the test compound solution is withdrawn from the cup by a Microtiter® transfer loop and diluted in 0.05 ml. of sterile water. Following this operation, 0.05 ml. of inoculated double-strength semisynthetic medium (glucose) is added automatically to each cup. The overall operation results in final drug concentrations ranging from 500 to 0.06 mcg./ml. in twofold decrements. The Autotray is incubated for 18-20 hours at 37° C. at which time the trays are examined visually for growth as evidenced by turbidity, and the concentration of the last sample in the series showing no growth (or no turbidity) is recorded as the minimal inhibitory concentration (MIC) in mcg./ml. The compounds were thus tested as solutions and found active in the range of 7.8 to 125 mcg./ml. (MIC) against one or more of various gram positive and gram negative bacteria including Staphylococcus aureus, Proteus mirabilis, Escherichia coli, Klebsiella pneumoniae and Streptococcus pyogenes.

S. aureus (Smith) = test: Autotiter in vitro antibacterial test, S. aureus (Smith); format: cell-based; conditions: Staphylococcus aureus, 18-20 hours at 37° C., read-out: minimal inhibitory concentration (MIC)
Description: as §1

Kleb. pneumoniae = test: Autotiter in vitro antibacterial test, Kleb. pneumoniae; format: cell-based; conditions: Klebsiella pneumoniae, 18-20 hours at 37° C., read-out: minimal inhibitory concentration (MIC)
Description: as §1

Strep. pyogens = test: Autotiter in vitro antibacterial test, Strep. pyogens; format: cell-based; conditions: Streptococcus pyogenes, 18-20 hours at 37° C., read-out: minimal inhibitory concentration (MIC)
Description: as §1

Prot. mirabilis = test: Autotiter in vitro antibacterial test, Prot. mirabilis; format: cell-based; conditions: Proteus mirabilis, 18-20 hours at 37° C., read-out: minimal inhibitory concentration (MIC)
Description: as §1

E. coli (1100/B22) = test: Autotiter in vitro antibacterial test, E. coli (1100/B22); format: cell-based; conditions: Escherichia coli, 18-20 hours at 37° C., read-out: minimal inhibitory concentration (MIC)
Description: as §1

SMILES: CN(C)N=Nc1cnc2ccccc2c1 [3,3-dimethyl-1-(3'-quinolinyl)triazene]
- stability of crude product on drying ([1]; allowed to dry while crude): decomposes in a puff of smoke
- stability of crude product ([1]; crude product): Crude product is very unstable
- stability during microanalysis ([1]; during microanalysis): Explodes during microanalysis
- stability of purified material on storage ([1]; purified material, on storage): darkens rapidly, but less dramatically, on storage

SMILES: CN(C)N=Nc1ccnc2ccc(Br)cc12 [Example 6-bromo]
- activity against mouse L-1210 leukemia (in words) (L-1210 leukemia): active
- increase of life-span, mouse L-1210 leukemia (L-1210 leukemia): 50%
- activity against P-388 tumor (in words) (P-388 tumor; up to 40 mg/kg): inactive

SMILES: CN(C)N=Nc1ccnc2ccc(Cl)cc12 [Example 6-chloro, 6-chloro-4-(3,3-dimethyl-1-triazeno)quinoline]
- activity against P-388 tumor (in words) (P-388 tumor; i.p. dosage of 30 mg/kg): active
- life-span of mice bearing i.p. implanted P-388 tumor (P-388 tumor; i.p. dosage of 30 mg/kg): 16 to 18 days

SMILES: CN(C)N=Nc1ccnc2ccc(I)cc12 [Example 6-iodo]
- activity against P-388 tumor (in words) (P-388 tumor; up to 40 mg/kg): inactive

SMILES: CN(C)N=Nc1ccnc2cc(Br)ccc12 [Example 7-bromo]
- activity against P-388 tumor (in words) (P-388 tumor; up to 40 mg/kg): inactive

SMILES: CN(C)N=Nc1ccnc2cc(Cl)ccc12 [Example 7-chloro, 7-chloro-4-(3,3-dimethyl-1-triazeno)quinoline]
- activity against P-388 tumor (in words) (P-388 tumor; i.p. dosage of 30 mg/kg): active
- life-span of mice bearing i.p. implanted P-388 tumor (P-388 tumor; i.p. dosage of 30 mg/kg): 16 to 18 days

SMILES: CN(C)N=Nc1ccnc2c(Br)cccc12 [Example 8-bromo]
- activity against mouse L-1210 leukemia (in words) (L-1210 leukemia): active
- increase of life-span, mouse L-1210 leukemia (L-1210 leukemia): 65%
- activity against P-388 tumor (in words) (P-388 tumor; up to 40 mg/kg): inactive

SMILES: CN(C)N=Nc1ccnc2c(Cl)cccc12 [Example 8-chloro, 8-chloro-4-(3,3-dimethyl-1-triazeno)quinoline]
- activity against mouse L-1210 leukemia (in words) (L-1210 leukemia): active
- increase of life-span, mouse L-1210 leukemia (L-1210 leukemia): 65%
- activity against P-388 tumor (in words) (P-388 tumor; i.p. dosage of 30 mg/kg): active
- life-span of mice bearing i.p. implanted P-388 tumor (P-388 tumor; i.p. dosage of 30 mg/kg): 16 to 18 days

SMILES: CCn1cc(C(=O)O)c(=O)c2ccc(N=NN(C)C)cc21 [Example E-1, 1-Ethyl-1,4-dihydro-7-(3,3-dimethyl-1-triazenyl)-4-oxo-3-quinolinecarboxylic Acid]
- MIC (E. coli (Vogel)): 7.8 µg/mL (≈ 27.1 µM)
- MIC (S. aureus (Smith)): 15.6 µg/mL (≈ 54.1 µM)
- MIC (Kleb. pneumoniae): 500 µg/mL (≈ 1730 µM)
- MIC (Strep. pyogens): 125 µg/mL (≈ 434 µM)

SMILES: CN(C)N=Nc1ccc2c(=O)c(C(=O)O)cn(C)c2c1 [Example E-2, 1,4-Dihydro-1-methyl-7-(3,3-dimethyl-1-triazenyl)-4-oxo-3-quinolinecarboxylic Acid]
- MIC (E. coli (Vogel)): 125 µg/mL (≈ 456 µM)
- MIC (S. aureus (Smith)): 62.5 µg/mL (≈ 228 µM)
- MIC (Prot. mirabilis): > 125 µg/mL
- MIC (Kleb. pneumoniae): > 125 µg/mL
- MIC (E. coli (1100/B22)): > 250 µg/mL
- MIC (Strep. pyogens): 62.5 µg/mL (≈ 228 µM)

SMILES: CCCn1cc(C(=O)O)c(=O)c2ccc(N=NN(C)C)cc21 [Example E-3, 1,4-Dihydro-7-(3,3-dimethyl-1-triazenyl)-4-oxo-1-n-propyl-3-quinolinecarboxylic Acid]
- MIC (E. coli (Vogel)): > 62.5 µg/mL
- MIC (S. aureus (Smith)): > 62.5 µg/mL
- MIC (Prot. mirabilis): > 125 µg/mL
- MIC (Kleb. pneumoniae): > 125 µg/mL
- MIC (E. coli (1100/B22)): > 62.5 µg/mL
- MIC (Strep. pyogens): 31.3 µg/mL (≈ 104 µM)

SMILES: CCCn1cc(C(=O)O)c(=O)c2ccc(N=NN(CC)CC)cc21 [Example E-4, 7-(3,3Diethyl-1-triazenyl)-1,4-dihydro-4-oxo-1-n-propyl-3-quinolinecarboxylic Acid]
- MIC (E. coli (Vogel)): > 500 µg/mL
- MIC (S. aureus (Smith)): 62.5 µg/mL (≈ 189 µM)
- MIC (Prot. mirabilis): > 500 µg/mL
- MIC (Kleb. pneumoniae): > 500 µg/mL
- MIC (E. coli (1100/B22)): > 500 µg/mL
- MIC (Strep. pyogens): 62.5 µg/mL (≈ 189 µM)

SMILES: CCn1cc(C(=O)O)c(=O)c2ccc(N=NN3CCN(C)CC3)cc21 [Example E-5, 1-Ethyl-1,4-dihydro-7-[(4-methyl-1-piperazinyl)azo]-4-oxo-3-quinolinecarboxylic Acid]
- MIC (E. coli (Vogel)): 15.6 µg/mL (≈ 45.4 µM)
- MIC (S. aureus (Smith)): 31.3 µg/mL (≈ 91.2 µM)
- MIC (Prot. mirabilis): 125 µg/mL (≈ 364 µM)
- MIC (Kleb. pneumoniae): 62.5 µg/mL (≈ 182 µM)
- MIC (Strep. pyogens): 125 µg/mL (≈ 364 µM)
